# Measured values taken from patent US8394816B2, “Methods of using [3.2.0] heterocyclic compounds and analogs thereof in treating Waldenstrom's Macroglobulinemia” (priority 2007, dated 2013).
# Experiments:
# [1] = Stability in solution; type: physicochemical; conditions: converted to compound VI-1B, mixture 7:3
# Experimental: The compound of Formula I-16 (15 mg, 0.048 mmol) was dissolved in 1:1 ratio of ACN/DMSO (8 ml) in a scintillation vial (20 ml) to which triethylamine (40 μl, 0.29 mmol), Glutathione (44.2 mg, 0.144 mmol) and a magnetic stir bar were added. The reaction mixture was stirred at room temperature for about 3 hours. The solvent was evaporated from the reaction mixture to yield the compound of Formula I-48, which was purified by reversed phase HPLC using Ace 5u C18 column (150 mm×22 mm ID) with a solvent gradient of 10% to 70% H2O/Acetonitrile over 15 min, 70 to 100% Acetonitrile over 5 min, holding at 100% Acetonitrile for 4 min, at a flow rate of 14.5 ml/min. Diode array detector was used to monitor the purification process. Compound I-48 (10 mg) eluted as a pure compound at 8.255 min. Compound I-48: UV (Acetonitrile/H2O) λmax 235 (sh) nm; ESMS m/z 621.0 (M+H)^+. […] Compound VI-1B: UV (Acetonitrile/H2O) λmax 235 (sh) nm; ESMS, m/z 585.2 (M+H)^+.
# [2] = tested on: BCWM.1 cells; assay: IL-6-induced proliferation, thymidine uptake; type: cell-based; conditions: salinosporamide A 2.5-20 nM, bortezomib 10 nM, IL-6 25 ng/mL
# Experimental: Proliferation was assessed by thymidine uptake assay.
# (§1) The effect of the two proteasome inhibitors on cytotoxicity of WM cells in the presence of IL-6 was also investigated. […] Whether the two proteasome inhibitors, used as single agent or in combination, could also target non-malignant hematopoietic cells was investigated.
# [3] = tested on: chymotrypsin-like (CT-L) activity of the 20S proteasome; assay: 20S proteasome chymotrypsin-like activity in treated cells; conditions: 10 nM, 4 hours
# [4] = tested on: BCWM.1 cells homing to the bone marrow; type: in vivo, BALB/c mice; conditions: single agents, cells pretreated; data not shown
# Experimental: FIG. 6D is a graph showing in vivo flow cytometry. DiI-labeled treated cells and DiR-labeled untreated cells were injected in the tail vein of 2 BALB/c mice. Cells were counted every 5 min for 45 minutes as described in Material and Methods.
# DI-labeled BCWM.1 cells treated with salinosporamide A (10 nM, 4 hours), alone or in combination with bortezomib (5 nM), or DiR-labeled untreated BCWM.1 cells used as control were injected in the tail vein of BALB/c mice, followed by in vivo flow cytometry every 5 minutes for 45 minutes after injection.
# [5] = tested on: BCWM.1 cells; type: cell-based; conditions: for caspases-3, 8 and 9 cleavage: each agent 10 nM
# Description: To further dissect whether apoptosis is mediated through the intrinsic or extrinsic pathways, the effect of salinosporamide A, bortezomib and the combination on caspases-3, 8 and 9 was investigated.
# [6] = tested on: trypsin-like (T-L) activity of the 20S proteasome; assay: 20S proteasome trypsin-like activity in treated cells; conditions: 10 nM, 4 hours
# [7] = tested on: WM; conditions: single agent, phase I trials; cited from earlier work
# [8] = tested on: Akt and STAT-3 phosphorylation; assay: IL-6-triggered Akt and STAT-3 phosphorylation, western blotting; type: cell-based; conditions: each agent 10 nM, 8 hours; IL-6 25 ng/mL 10 minutes
# Experimental: Cells were then stimulated with IL-6 (25 ng/mL) for 10 minutes.
# as §1
# [9] = tested on: caspase-like (C-L) activity of the 20S proteasome; assay: 20S proteasome caspase-like activity in treated cells; type: cell-based; conditions: each agent 10 nM, 4 hours
# [10] = tested on: Akt; assay: In vitro Akt kinase assay; type: cell-based; conditions: each agent 10 nM
# Description: FIG. 4B is a picture showing In vitro Akt kinase assay. […] Whole cell lysates were immunoprecipitated with anti-Akt antibody. Then the immunoprecipitate was washed and subjected to in vitro kinase assay according to manufacturer's protocol. Western blotting used anti-p-GSK3α/β and anti-Akt antibodies.
# [11] = tested on: p65 phosphorylation and p50NF-κB expression; assay: Fibronectin-induced NF-κB activity, western blotting of nuclear extracts; conditions: each agent 10 nM, 4 hours
# Description: Nuclear extracts were subjected to western blotting using anti-p-p65, -p50, and -nucleolin antibodies.
# [12] = tested on: WM-WSU, MEC-1, Namalwa; assay: MTT cytotoxicity assay, other IgM-secreting cell lines; type: cell-based; conditions: Homo sapiens, MEC1; 48 hours
# [13] = tested on: BCWM.1 cells adherent to BMSCs; assay: [3H]-TdR uptake in co-culture with BMSCs; type: cell-based; conditions: salinosporamide A 2.5-20 nM, bortezomib 10 nM, 48 hours
# Experimental: Whether salinosporamide A, alone or in combination with bortezomib, inhibits WM cells growth in the context of the BM milieu was investigated. BCWM.1 cells were cultured with salinosporamide A (2.5-20 nM) and/or bortezomib (10 nM) in the presence or absence of BMSCs, for 48 hours.
# [14] = tested on: BCWM.1 cells; assay: cells
# Experimental: (§2) FIG. 1A is a graph showing thymidine uptake assay and cytotoxicity assessed by MTT. BCWM.1 cells were cultured with salinosporamide A (2.5-40 nM) for 48 hours.
# FIG. 2A is a graph showing BCWM.1 cells cultured with salinosporamide A (2.5, 5 and 10 nM) for 48 hours, in the presence or absence of bortezomib (5 and 10 nM). Cytotoxicity was assessed by MTT assay.
# All experiments were repeated in triplicate.
# [15] = tested on: Akt knockdown BCWM.1 cell line; assay: MTT cytotoxicity in Akt knockdown cell line; conditions: 2.5-20 nM, 48 hours
# Experimental: BCWM.1 transfected cells or BCWM.1 control cells were treated with salinosporamide A (2.5-20 nM) for 48 hours. Cytotoxicity was assessed by MTT assay.
# [16] = tested on: BMSCs
# [17] = tested on: BCWM.1 cells; assay: Apo2.7 staining apoptosis, flow cytometry; type: cell-based; conditions: 48 hours, untreated 5%
# Experimental: FIG. 1E is a graph showing BCWM. 1 cultured with salinosporamide A for 48 hours at doses that range from 2 to 30 nM and the percentage of cells undergoing apoptosis was studied by Apo2.7 staining.
# The molecular mechanisms whereby salinosporamide A induces cytotoxicity in WM cells was examined.
# [18] = tested on: PI3K/Akt signaling pathway in BCWM.1 cells; assay: Western blotting of PI3K/Akt signaling pathway; conditions: 2.5-20 nM, 6 hours
# Description: Whole cell lysate were subjected to Western blotting using anti-p-Akt, -Akt, -p-GSK3α/β, -p-S6R, -p-ERK, and -α-tubulin antibodies.
# [19] = tested on: BCWM.1 cells; assay: Transwell migration assay towards SDF-1; type: cell-based; conditions: each agent 10 nM, 4 hours; SDF-1 30 nM
# Description: Cells were then subjected to migration as previously described in Alsayed Y, Ngo H, Runnels J., et al. Mechanisms of regulation of CXCR4/SDF-1 (CXCL12)-dependent migration and homing in multiple myeloma. Blood.
# [20] = tested on: NF-κBp65; assay: NF-κBp65 DNA binding activity (Active Motif assay), TNF-α stimulated; type: cell-based; conditions: each agent 10 nM, 4 hours; TNF-α 10 ng/mL last 20 minutes
# Experimental: FIG. 3A is a graph showing BCWM.1 cells cultured with either salinosporamide A (10 nM), bortezomib (10 nM), or the combination for 4 hours, then human TNF-α (10 ng/mL) was added for the last 20 minutes. NF-κBp65 transcription factor-binding to its consensus sequence on the plate-bound oligonucleotide was studied from nuclear extract. Wild type and mutant are wild type and mutated consensus competitor oligonucleotides, respectively. All results represent means (±sd) of triplicate experiments.
# The effect of salinosporamide A either alone or in combination with bortezomib on the NF-κBp65 DNA binding activity was investigated, studying nuclear extracts from treated cells using the Active Motif assay. […] Phospho-p65 translocation from the cytoplasmic compartment to the nucleus was inhibited by the combination of bortezomib and salinosporamide A, resulting in a significant increase in p-p65 expression in the cytoplasmic compartment as shown by immunofluorescence (FIG. 3D).
# [21] = tested on: PBMCs from 3 healthy volunteers
# [22] = tested on: WM-WSU, MEC-1, Namalwa; assay: [3H]-thymidine uptake assay, IgM-secreting cell lines; type: cell-based; conditions: Homo sapiens, MEC1, 48 hours, read-out: IC50, [3H]-thymidine uptake, all cell lines tested
# Experimental: FIG. 1B is a graph showing thymidine uptake assay.
# WM and IgM-secreting cell lines were cultured for 48 hours in the presence of salinosporamide A (Formula I-16) (2.5-40 nM). […]
# [23] = tested on: BM hematopoietic progenitor cells; assay: Colony-forming cell assay; conditions: salinosporamide A 10 nM, 20 nM; bortezomib 10 nM; day 14
# Description: FIG. 5D is a graph showing colony-forming cell assay. […] All experiments have been done in triplicate.
# as §1
# [24] = tested on: BCWM.1 cells; assay: [3H]-thymidine uptake proliferation assay; type: cell-based; conditions: BCWM1; BCWM.1, 48 hours; read-out: IC50, inhibition of proliferation ([3H]-thymidine uptake)
# Experimental: as §2
# WM and IgM-secreting cell lines were cultured for 48 hours in the presence of salinosporamide A (Formula I-16) (2.5-40 nM).
# [25] = tested on: primary CD19+ cells isolated from three patients with WM; assay: tissue or blood; conditions: Homo sapiens, read-out: IC50, cytotoxicity in primary CD19+ cells (MTT)
# Experimental: FIG. 1D is a graph showing freshly isolated bone marrow CD19^+ tumor cells from 3 patients with WM were cultured with salinosporamide A (2.5-40 nM [E]; 2.5-80 nM [F]). Cytotoxicity was assessed by MTT assay.
structure (smiles),measurement,setting,value
C[C@]1(O)[C@@H](CCCl)C(=O)N[C@]1(C(=O)SCC(NC(=O)CCC(N)C(=O)O)C(=O)NCC(=O)O)[C@@H](O)[C@@H]1C=CCCC1 (some centres unmarked) [Compound I-48],stability in solution,[1],unstable in solution
"CC(C)C[C@H](NC(=O)[C@H](Cc1ccccc1)NC(=O)c1cnccn1)B(O)O [bortezomib, Bortezomib, reference compound]",IL-6-induced proliferation of BCWM.1 cells,[2],inhibited IL-6-induced proliferation of BCWM.1 cells
same,reduction of the CT-L activity,[3],69%
same,homing of WM cells to the bone marrow,[4],Neither salinosporamide A nor bortezomib used as single agents significantly inhibited homing
same,"caspases-3, 8 and 9 cleavage",[5]; 12 hours,induced-9 and -3 cleavage
same,reduction of the T-L activity,[6],5%
same,responses in WM,[7],40-80%
same,IL-6-triggered Akt and STAT-3 phosphorylation,[8],inhibited IL-6-triggered Akt and STAT-3 phosphorylation
same,reduction of the C-L activity,[9],29%
same,Akt kinase activity (phosphorylation of GSK3α/β fusion protein),[10],did not modulate Akt phosphorylation
same,FN-induced p65 phosphorylation and p50NF-κB expression,[11],inhibited
C[C@@]12OC(=O)[C@]1([C@@H](O)[C@@H]1C=CCCC1)NC(=O)[C@@H]2CCCl [salinosporamide A],IL-6-induced proliferation of BCWM.1 cells,[2],inhibited IL-6-induced proliferation of BCWM.1 cells
same,IC50,[12],30 to 40 nM
same,BMSC-triggered increase in proliferation of BCWM.1 cells,[13],inhibited by salinosporamide A in a dose-dependent manner
same,IC50,"[14]; BCWM1, 48 h, read-out: IC50, decreased survival (MTT)",18 nM
same,"cytotoxicity, % of BCWM.1 cells (MTT)",[14]; human,12.4%
same,cytotoxic effect in the absence of Akt,[15],abrogated
same,viability of BMSCs (MTT),[16],not affected
same,reduction of the CT-L activity,[3],81%
same,percentage of apoptotic BCWM.1 cells,[17]; 5 nM,21.2%
same,percentage of apoptotic BCWM.1 cells,[17]; 20 nM,40%
same,homing of WM cells to the bone marrow,[4],Neither salinosporamide A nor bortezomib used as single agents significantly inhibited homing
same,Mcl-1 expression,"[5]; 2.5-20 nM, 12 hours",induced down-modulation of the anti-apoptotic protein Mcl-1
same,XIAP expression,"[5]; 2.5-20 nM, 12 hours",down-regulated the expression of XIAP in a dose-dependent manner
same,caspase-8 and PARP cleavage,"[5]; 2.5-20 nM, 12 hours",induced caspase-8 and PARP cleavage in a dose-dependent manner
same,caspase-3 and -9,"[5]; 2.5-20 nM, data not shown",without affecting caspase-3 and -9
same,"caspases-3, 8 and 9 cleavage",[5]; 12 hours,induced mild capsase-8 cleavage without affecting caspase-3 and 9 cleavage
same,"phosphorylation of Akt (ser473), GSK3α/β and ribosomal protein S6",[18],"inhibited phosphorylation of Akt (ser473), and downstream GSK3α/β and ribosomal protein S6 in a dose dependent manner"
same,phosphorylation of ERK1/2 (thr202/tyr204),[18],no activity on the phosphorylation of the MAP kinase ERK1/2
same,reduction of the T-L activity,[6],38.7%
same,WM cells migration towards SDF-1,[19],slightly inhibited
same,TNF-α induced NF-κB recruitment to the nucleus (NF-κBp65 DNA binding),[20],inhibited by salinosporamide A more than bortezomib
same,cytotoxic effect on PBMCs,[21],no cytotoxic effect
same,IL-6-triggered Akt and STAT-3 phosphorylation,[8],inhibited IL-6-triggered Akt and STAT-3 phosphorylation
same,reduction of the C-L activity,[9],34.3%
same,Akt kinase activity (phosphorylation of GSK3α/β fusion protein),[10],decreased phosphorylation of GSK3α/β fusion protein
same,IC50,[22],20 to 30 nM
same,growth of BM hematopoietic progenitor cells (colony formation),[23],did not affect the growth of BM hematopoietic progenitor cells
same,IC50,[24],15 nM
same,IC50,[25],20 to 30 nM
same,FN-induced p65 phosphorylation and p50NF-κB expression,[11],inhibited
